Common to all, as to assay: NCI-60 cell line screen, 48 h
For assay [1], the system named is MOLT-4.
Assay [2] deals with UO-31.
The test system of assay [3] is CAKI-1.
For assay [4], the system named is K562.
Assay [5] has as its system HCC 2998.
Assay [6] concerns U-251.
Assay [7] has as its system COLO 205.
For assay [8], the system named is SW-620.
Assay [9] deals with NCI-H522.
Assay [10] has as its system UACC-62.
Assay [11] relates to SNB-75.
The test system of assay [12] is SR.
In assay [13] the test system is SK-MEL-2.
Assay [14] relates to 786-0.
The subject of assay [15] is HCT-15.
The test system of assay [16] is RXF 393.
Assay [17] relates to M14.
In assay [18] the test system is NCI-H23.

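96-well plates; 48 h exposure; 5 concentrations. Endpoints by linear interpolation between flanking doses. Not reached: highest tested concentration assigned. At the GI50, growth is halved.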 Active and inactive are the calls of the source. Cut-off read from the data, not from the text of the source: active = GI50 up to about 1.1 µM and inactive = higher.

In the case of `CC1(C)CC(=O)c2c(oc3cc(O)c(O)cc23)C1`, the GI50 in [1] was 21.3 µM (inactive); in assay [2], 37.7 µM (inactive); in [3], 25.8 µM (inactive); in assay [4] it was 24.7 µM (inactive); in [5], 59.4 µM (inactive); in assay [6], 33 µM (inactive). Also, the GI50 in assay [7] was 36.6 µM (inactive); in [8], 19.1 µM (inactive); in assay [9], 11.5 µM (inactive); in assay [10], 17.3 µM (inactive); in assay [11], 32.8 µM (inactive); in [12], 18.8 µM (inactive). Besides, the GI50 in assay [13] is 26.7 µM (inactive); in [14] it was 26.3 µM (inactive); in assay [15] it was 25.4 µM; in [16], 29.4 µM (inactive); in [17], 24.2 µM (inactive).
Take `N#Cc1ccccc1NC(=O)C(=O)C1NC(=S)NC1=O` (configuration not stated): the GI50 in [1], in assay [3], in assay [4], in assay [5], in [18] and in assay [6] was > 100 µM (inactive) throughout. In addition, the GI50 in assay [7], in assay [8], in assay [10], in [11], in assay [12] and in assay [14] was > 100 µM (inactive) in each case. Also, the values for the GI50 in assay [15], in [16] and in assay [17] were more than 100 µM, > 100 µM (inactive) and > 100 µM (inactive), respectively.
For the compound `Cc1ccc(-c2c(C#N)c(-c3ccc(C)cc3)n(NS(=O)(=O)c3ccccc3)c(=O)c2C#N)cc1`, the GI50 was 25.2 µM (inactive) in assay [1]; 83.8 µM (inactive) in assay [3]; 49.2 µM (inactive) in assay [4]; 25.2 µM (inactive) in assay [5]; 49.9 µM (inactive) in [6]; 89.5 µM (inactive) in [7]. In addition, the GI50 was 42.4 µM (inactive) in assay [8]; 50.1 µM (inactive) in assay [9]; 34.1 µM (inactive) in assay [10]; > 100 µM (inactive) in assay [11]; 57.4 µM (inactive) in assay [13]; 54.1 µM (inactive) in [14]. Besides, the GI50 is 39.4 µM in assay [15], 35.3 µM (inactive) in assay [16] and 40.6 µM (inactive) in assay [17].
As for `CC1=C(c2cc(C(=O)Nc3cc(C)ccc3C)nc(N)n2)Sc2ccccc2N1`, the GI50 in assay [1], in [2], in [3], in [4], in assay [5] and in [18] was > 100 µM (inactive) in each case. The GI50 in assay [6], in assay [7], in assay [8], in [9], in assay [10] and in assay [11] was > 100 µM (inactive) throughout. Moreover, the GI50 in [12] is 65.8 µM (inactive); in [13], > 100 µM (inactive); in assay [14], > 100 µM (inactive); in [15], more than 100 µM; in assay [16] it was > 100 µM (inactive); in assay [17] it was > 100 µM (inactive).
`C=CCc1cc(OC)c2c(c1)C(OC)CC(c1ccc(OC)c(OC)c1)O2` (configuration not stated): the GI50 is 45.5 µM (inactive) in assay [1]; 42.3 µM (inactive) in assay [2]; 94.8 µM (inactive) in [3]; 61.8 µM (inactive) in assay [4]; > 100 µM (inactive) in assay [5]; > 100 µM (inactive) in assay [6]. Besides, the GI50 in assay [7] was > 100 µM (inactive); in assay [8] it was > 100 µM (inactive); in assay [10] it was > 100 µM (inactive); in assay [11] it was 54.8 µM (inactive); in [13], > 100 µM (inactive); in assay [14] it was > 100 µM (inactive). In addition, the GI50 in assay [15] is 61.5 µM; in assay [17], 78.2 µM (inactive).
Turning to `CC1=NOC(=O)/C1=C/c1ccccc1O`, the GI50 in [1], in [2], in assay [3], in [4], in [5] and in assay [18] was > 100 µM (inactive) in each case. Besides, the GI50 in assay [6] was > 100 µM (inactive); in assay [7], > 100 µM (inactive); in [8], 20.4 µM (inactive); in assay [9], > 100 µM (inactive); in [10] it was > 100 µM (inactive); in assay [11], > 100 µM (inactive). In addition, the GI50 is > 100 µM (inactive) in assay [12]; > 100 µM (inactive) in assay [13]; > 100 µM (inactive) in [14]; more than 100 µM in assay [15]; > 100 µM (inactive) in assay [17].
For `O=C(CC1(O)C(=O)Nc2c(Cl)cc(Cl)cc21)c1ccccc1` (configuration not stated), the GI50 is 33.6 µM (inactive) in [1]; 52.1 µM (inactive) in [2]; > 100 µM (inactive) in assay [3]; 47.4 µM (inactive) in [4]; 77.6 µM (inactive) in assay [18]; > 100 µM (inactive) in assay [7]. For the same compound, the GI50 in assay [8] was 40.9 µM (inactive); in assay [9], 55.1 µM (inactive); in assay [10] it was 59.4 µM (inactive); in assay [11], 38.6 µM (inactive); in assay [13], > 100 µM (inactive); in assay [14] it was > 100 µM (inactive). The GI50 in assay [15] is 80.9 µM; in assay [16], > 100 µM (inactive); in [17] it was > 100 µM (inactive).
Turning to `COC(=O)Nc1nc2cc(Br)ccc2[nH]1`, the GI50 in assay [1] was 53.8 µM (inactive); in [2], > 100 µM (inactive); in assay [4], 17.6 µM (inactive); in assay [5] it was 33.6 µM (inactive); in assay [18] it was 32.7 µM (inactive); in assay [6], 22.8 µM (inactive). In addition, the GI50 was 23.8 µM (inactive) in assay [7]; 37 µM (inactive) in [8]; 14.4 µM (inactive) in [9]; 74.5 µM (inactive) in assay [10]; 56 µM (inactive) in assay [11]; 6.44 µM (inactive) in [12]. Also, the GI50 in [13] is 16.1 µM (inactive); in [14], 53.2 µM (inactive); in [15], 8.34 µM; in [16], 25.8 µM (inactive); in [17], 43.9 µM (inactive).
On to `C=CCOC(=O)C1CCC(=O)N1C(=O)C(Cl)Cl` (configuration not stated), for which the GI50 in assay [1], in [2], in assay [3], in [4], in assay [5] and in assay [18] was > 100 µM (inactive) in each case. The GI50 in [6] is > 100 µM (inactive); in [7] it was > 100 µM (inactive); in [8], > 100 µM (inactive); in [9], > 100 µM (inactive); in assay [10] it was > 100 µM (inactive); in assay [11], 61.8 µM (inactive). Further, the GI50 in assay [13] was > 100 µM (inactive); in [14], > 100 µM (inactive); in assay [15], more than 100 µM; in [17], > 100 µM (inactive).
Consider `COc1c(C)cc2c(C(C)C)c(O)c(O)c(C=O)c2c1O`, for which the GI50 in [1] was 55.7 µM (inactive); in [2] it was 31.3 µM (inactive); in assay [4] it was 17.2 µM (inactive); in [5], 33.9 µM (inactive); in [18], 18.3 µM (inactive); in assay [6], 18 µM (inactive). The GI50 in assay [7] was 16.4 µM (inactive); in assay [8] it was 40.6 µM (inactive); in [9], 25.6 µM (inactive); in [10], 20.6 µM (inactive); in assay [11], 25.4 µM (inactive); in assay [13] it was 15.8 µM (inactive). Moreover, the GI50 in [14] is 26.4 µM (inactive); in assay [15], 24.5 µM; in assay [16], 21.6 µM (inactive); in assay [17], 23.2 µM (inactive).
Take `Cc1ccn2c(c1)nc1nc3ccccc3nc12`: the GI50 in assay [2], in assay [3], in [4], in assay [18], in assay [6] and in assay [7] was > 100 µM (inactive) each time. Moreover, the GI50 in [8] was > 100 µM (inactive); in [9] it was > 100 µM (inactive); in [10], > 100 µM (inactive); in assay [11] it was 78.5 µM (inactive); in assay [12], > 100 µM (inactive); in assay [13], > 100 µM (inactive). The GI50 was > 100 µM (inactive) in [14], more than 100 µM in assay [15], > 100 µM (inactive) in [16] and > 100 µM (inactive) in assay [17].
Regarding `NN/C(Cc1ccccc1)=N\NO`, the GI50 in [1] is > 100 µM (inactive); in [3], > 100 µM (inactive); in assay [4] it was 85.7 µM (inactive); in assay [5], > 100 µM (inactive); in assay [18] it was 57.4 µM (inactive); in [7], > 100 µM (inactive). Moreover, the GI50 in assay [8] was > 100 µM (inactive); in assay [10], 56.2 µM (inactive); in assay [11], > 100 µM (inactive); in [13], > 100 µM (inactive); in assay [14], > 100 µM (inactive); in [15], 26.8 µM. Also, the GI50 in [16] was > 100 µM (inactive); in assay [17] it was 63.8 µM (inactive).
`CC[C@@H]1C[C@H]2CC3c4[nH]c5ccc(O)cc5c4CCN(C2)C31`: the GI50 in assay [1] is > 100 µM (inactive); in [2], > 100 µM (inactive); in [3], > 100 µM (inactive); in assay [4], 99.5 µM (inactive); in assay [5], > 100 µM (inactive); in assay [18], > 100 µM (inactive). The GI50 in [6], in assay [7], in assay [8], in assay [10], in assay [11] and in assay [12] was > 100 µM (inactive) each time. Further, the GI50 in assay [13] is > 100 µM (inactive); in assay [14] it was > 100 µM (inactive); in [15], more than 100 µM; in assay [16], 72.3 µM (inactive); in [17], > 100 µM (inactive).

(Values after ChEMBL document CHEMBL1201862, “PubChem BioAssay data set” (2004).)
